Data taken from a melting point compilation (Tetko et al.; mined from patent text by program, amines drawn as free bases though some values may be those of a salt).

Row | Compound | melting point [°C]
1 | CC(=O)OCCCC#Cc1ccccc1S(N)(=O)=O | 136 to 138
2 | C#CCn1c(-c2cc(Cl)nc(Cl)c2)nc(CC)c(OC)c1=O | 112 to 115
3 | Cc1cccc(NC(=O)NC2N=C(C3CC3)c3cccc(C)c3N(CC(=O)N3CCCCCCC3)C2=O)c1 (stereo not drawn) | 178 to 179
4 | Cc1ccc(S(=O)(=O)OCC2Cc3c(Br)cccc3O2)cc1 (stereo not drawn) | 90 to 91
5 | CC1(C)CC(=O)C(SCC2CCCCC2)=C(O)C1 | 67.5 to 69.5
6 | CC(C)(C)OC(=O)NCC1=C(CC(=O)O)CC=CC1 | 183
7 | OC1CN2[C@H]3CC[C@@H]2[C@@H]1[C@@H](c1ccc(Cl)c(Cl)c1)C3 (stereo partly drawn) | 156 to 158
8 | COCN1C(C)=C(C(=O)O)C(c2cccc(Cl)c2Cl)C(C(=O)O)=C1C | 155 to 156
9 | CCCCCOc1ccc(C=O)cc1O | 55 to 56
10 | CCOc1nc(NCc2ccco2)nc(Nc2cccc(CN3CCOCC3)c2)n1 | 69 to 71
11 | O=C(O)c1ccc(C2=CCC3CCC2C3)cc1 (stereo not drawn) | 180 to 181
12 | CN1C(C)(C)CC(OC(=O)CCc2cc(-n3nc4ccc(Cl)cc4n3)c(O)c(C(C)(C)C)c2)CC1(C)C | 150 to 158
13 | CC[C@H]1c2ccc(C#N)n2-c2cc(F)c(F)cc2N1S(=O)(=O)c1ccc(OS(N)(=O)=O)cc1 | 196 to 201
14 | Cc1nc[nH]c1CSCCCNC(=N)N | 156 to 158
15 | CSCc1c(Cl)ccc(C(=O)c2cnoc2C2CC2)c1SC | 79.9 to 80.5
16 | O=C1CCCN1C(=O)Oc1cccc(Cl)c1 | 88 to 89
17 | COP(=O)(CCc1cccc2c1O[C@H]1C[C@@H](O)[C@H](CO)[C@@H]21)OC | 106 to 107
18 | CCC(N)=C(C(C)=O)C(=O)N(CCN(C)C)c1cccc(F)c1 | 96 to 97
19 | CCOC(=O)c1c(C)nc(NCCCN(C)C)c2nnn(CC)c12 | 30 to 34
20 | O=C1N(Cc2cnccn2)c2ccccc2C12COc1cc3c(cc12)OCCO3 (stereo not drawn) | 216 to 218
21 | CC1(C)CC(OC(=O)c2ccccc2)CC(C)(C)N1OC(N)=O | 148 to 149
22 | O=C(c1cc(F)cc(F)c1)c1cc(F)cc(F)c1 | 79
23 | CCOC(=O)c1cn(N=C(C)C)c2c(F)c(F)c(F)cc2c1=O | 166
24 | COc1cc2c(cc1OC)N(C)C(=O)CN=C2c1cccc(C(C)=O)c1 | 148 to 150
25 | Brc1cccc(Br)c1I | 99 to 100

Row | Compound | melting point [°C]
26 | CC(C)N(CCN1C(=O)/C(=N/NC(=O)NC2CCCCC2)c2ccccc21)C(C)C | 164 to 166
27 | CCN(CC)CCOc1ccc(Nc2ncc3c(n2)N(C)C(=O)N(C(C)(C)C)C3)cc1 | 130
28 | CCOC(=O)c1cn(-c2cc(N)c(F)cn2)c2c(Cl)c(F)c(F)cc2c1=O | 140 to 148
29 | CCOC(=O)/C=C/c1cc(C(F)(F)F)ccc1C(=O)NCC(F)(F)F | 162
30 | CCc1cc2c(=O)n3cc(C#N)ccc3nc2s1 | 223 to 224
31 | O=S(=O)(c1cc(F)ccc1F)N1CCNc2ncc(I)cc21 | 187 to 188
32 | CCCCN1Nn2c(c3ncnc-3c3cccnc32)N1CC(C)C | 182 to 184
33 | Cc1cc(C(N)C(=O)O)ccc1O (stereo not drawn) | 205 to 207
34 | O=C(NC(=O)c1c(F)cccc1F)Nc1ccc(C(O)(C(F)(F)F)C(F)(F)F)cc1 | 205 to 207
35 | O=C(O)c1ccc(Br)c(CN2CCC(c3cn(Cc4ccncc4)c4ccccc34)CC2)c1 | 167 to 168
36 | Cc1cc(N2CCc3ncccc3C2)nc(N2CCC(F)(F)CC2)c1[N+](=O)[O-] | 168 to 169
37 | CON1C(C)(C)CC(OC(=O)NNC(=O)OC2CC(C)(C)N(OC)C(C)(C)C2)CC1(C)C | 147 to 149
38 | CC(C)(C(=O)C=Cc1ccc(F)cc1)C1OCCO1 | 76
39 | N#Cc1c(N2CCN(C(=O)c3cccs3)CC2)c2cccnc2n(CC2CC2)c1=O | 189
40 | COC(=O)c1cnc(N2CCN(CC3CC3)C2=O)s1 | 124 to 126
41 | CN(C(=O)c1ccc2nonc2c1)C1CCCCC1=O (stereo not drawn) | 144 to 145
42 | Cc1cccc(Cl)c1NC(=O)Nc1cc(N[C@H]2CC[C@H](O[Si](C)(C)C(C)(C)C)CC2)ncn1 | 218 to 220
43 | CCCc1nc2c(N)nc(C)c(C)c2n1CCCS(C)(=O)=O | 154 to 155
44 | COCSc1ccc2c(c1)CC[C@@H]1[C@@H]2CC[C@]2(C)C(=O)CC[C@@H]12 | 55
45 | Cn1c(C(F)(F)F)cc(=O)n(-c2ccc(Cl)c(C3OCCCO3)c2)c1=O | 87 to 92
46 | Cc1cccc(Cl)c1-n1[nH]c(C(C)C)c2c(=O)nc(Cc3ccc(N)cc3)nc1-2 | 206 to 207
47 | O=C(NCCCCCC1CCSS1)c1ccccc1 (stereo not drawn) | 58 to 59
48 | Cc1ccc(C2c3c(C)c(N4CCN(C(=O)c5ccc(C#N)cc5)CC4)c(C)c(C)c3OC2(C)C)cc1 (stereo not drawn) | 159 to 161
49 | CCOP(=O)(OCC)C(CCc1cc(C)nc2c(I)c(-c3ccccc3)nn12)P(=O)(OCC)OCC | 81 to 82

The remaining lines, values ahead:

Row | melting point [°C] | Compound
50 | 169 to 170 | CCOC(=O)CCCc1ccc(Nc2ncc3cc(-c4c(Cl)cccc4Cl)c(=O)n(C)c3n2)cc1
51 | 160 to 162 | O=C(NC(=O)c1c(Cl)cccc1Cl)Nc1ccc(Sc2ccc(Cl)cc2)nc1
52 | 51 to 54 | COC(=O)[C@@H]1CSC(=O)N1CC(C)(C)SCc1ccc(OC)cc1
53 | 220 to 221 | NC(=O)N1c2ccccc2CC(=NNc2ccccc2)c2ccccc21
54 | 198 | O=C1Nc2cccnc2N(CC#CCN2CCCCC2)c2ccccc21
55 | 107 to 108 | COc1cccc(C2(Cn3ccnc3)CC(CSc3ccc(C)cc3)ON2C)c1 (stereo not drawn)
56 | 117 to 119 | COc1ccc(Cc2ncc(CN3CCN(c4ccccc4OC)CC3)c3cc(OC)c(OC)cc23)cc1OC
57 | 221 to 223 | Nc1ccccc1NC(=O)c1ccc(NC(=O)CO)cc1
58 | 169 to 171 | COC(=O)C(C#N)C(c1ccccc1OC)c1ccnc2ccccc12 (stereo not drawn)
59 | 182 to 183 | COc1ccc(-c2c(C(=O)c3ccccc3)c(CBr)nc3cc(OC)c(OC)cc23)cc1OC
60 | 180 to 181 | O=c1[nH]c(NCCCNc2ncccc2Cl)ncc1Cc1ccc(Cl)cc1
61 | 167 to 168 | COC(=O)Cc1ccc(NC(=O)Nc2ccccc2C)c(OC)c1
62 | 181 to 182 | O=C(O)CCCCCN1CCN2c3ccccc3Cc3ccccc3C2C1 (stereo not drawn)
63 | 161 to 164 | CCCCc1nc2c(N)nc3ccc(OCc4ccccc4)cc3c2n1CCCCN
64 | 161 to 164 | CCOc1nc2c(N)nc(OCCc3ccccc3)nc2n1CC
65 | 180 | Fc1cccc(COc2ccc(Nc3ncnc4sc(C#Cc5ccccn5)cc34)cc2Cl)c1
66 | 187 to 188 | CCc1c(C#N)c(-c2ccc(C#N)cc2)c(C)n1Cc1cnc(Cl)c(COC(=O)CCC(=O)O)c1
67 | 232 to 233 | COc1ccccc1NC(=O)Nc1nc(Oc2ccc3ccccc3c2)nc(N(CCC(=O)O)Cc2ccccc2C(F)(F)F)n1
68 | 53.5 to 55 | FC1(F)c2ccccc2Cc2ccccc2C1(F)F
69 | 115 to 116 | O=C(c1ccn2c1CSC2c1cccnc1)c1cn(S(=O)(=O)c2ccccc2)c2cc(-c3ccc(F)cc3)ccc12 (stereo not drawn)
70 | 248 | N#Cc1ccc(NC(=O)c2cc3ccccc3cc2O)c(OC(F)(F)F)c1
71 | 128 | Cc1ccc(S(=O)(=O)N2[C@@H](C#N)CC[C@H]2c2ccc(F)cc2)cc1 (racemic)
72 | 157 | CC1(C)CCC(C)(C)c2cc(C#Cc3ccc(C#N)cc3)ccc21
73 | 72 to 73 | CCNS(=O)(=O)c1ccc(C2=C(c3ccccc3)C(=O)C(C)(C)O2)cc1Cl
74 | 185 | O=C(COc1cc(-c2ccccn2)nc2ccccc12)N1CCOCC1

Row | melting point [°C] | Compound
75 | 122 | N#CCc1cccc2c(-c3ccc(Br)cc3)nccc12
76 | 155 to 156 | CCOC(=O)c1ccc2ccc(O)cc2c1
77 | 244 to 245 | CN(c1cccc2cc(C(N)=O)[nH]c12)S(=O)(=O)c1cccs1
78 | 148 to 149 | c1ccc(-c2c[nH]c3ccccc23)cc1
79 | 189 | COC(=O)C1=C(C)NN=C(c2ccccc2)C1c1cccc(Cl)c1 (stereo not drawn)
80 | 176 to 177 | COc1cccc(Cn2cc3c(-c4cccc(C(=O)NCCO)c4)cccc3n2)c1
81 | 192 to 193 | CN1c2ccccc2C(=O)c2ccccc2C12OCCO2
82 | 196 to 197 | CCOC(=O)c1c(CSc2ccccc2)n(C)c2cc(Br)c(O)cc12
83 | 208 to 210 | Oc1ccc(-c2ccc3c(Br)c(O)ccc3c2)cc1
84 | 110 to 111 | COc1ccc2c(c1OC)C(=O)c1ccccc1-2
85 | 230 | Cn1cncc1C(O)(c1ccc(Cl)nc1)c1ccc2noc(-c3cccc(Cl)c3)c2c1 (stereo not drawn)
86 | 145 to 148 | O=C1NCC(CO)C1(c1ccccc1)c1ccccc1 (stereo not drawn)
87 | 184 | CC(C)c1c(C(=O)c2ccccc2)n(COCc2ccccc2)c(=O)[nH]c1=O
88 | < 20 | CC(=O)N1CCC(Cl)c2nc3ccccc3c(C)c2C1 (stereo not drawn)
89 | 215 to 216 | COc1cc2ncnc(Nc3ccc4ccccc4n3)c2cc1OC
90 | 201 | COC(=O)C1(N)C(=O)Nc2ccccc2CC1c1ccccc1 (stereo not drawn)
91 | 234 to 236 | CNC(=O)c1nn(-c2ccccc2)c(O)c1N=Nc1ccc(S(=O)(=O)NCCCCCCBr)cc1
92 | 137 to 140 | CCn1c(-c2c(C)cc(C)cc2C)nc(-c2ccncc2)c1-c1ccc(C)cc1
93 | 208 to 209 | CC(C)(C)C(NC(=O)c1ccc(Cl)cc1)NC(=NC#N)Nc1ccccc1F (stereo not drawn)
94 | 78 to 79 | COc1ccc(C(=O)c2cnoc2C)cc1
95 | 187 to 188 | COc1cc(C(=O)NS(=O)(=O)c2ccccc2C)ccc1Cn1ccc2ccc(CC(=O)NCC3CCCC3)cc21
96 | 97 to 98 | Clc1ccc(CCC(Cn2ccnc2)SCc2ccco2)cc1 (stereo not drawn)
97 | 156 to 157 | N#Cc1c(-c2ccccc2)c(-c2ccccc2)nn(CCCO)c1=O
98 | 268 to 271 | CNc1nc(-c2ccc(SC)cc2)n(-c2ccc(C)cc2)c(=O)c1C#N
